Test results as given in ChEMBL document CHEMBL1201862, “PubChem BioAssay data set” (2004).
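The compound was tested at five concentrations on cells cultured in 96-well plates, with a 48-hour exposure period. Abbreviation: GI50, concentration required for 50% inhibition of growth.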 Activity calls are given as the source filed them. No stated cut-off is given here; in the data, active = GI50 up to about 1.1 µM and inactive = higher. Peptide text beside a SMILES is read from it. * marks the point of attachment. Trt = c1ccc(C(c2ccccc2)(c2ccccc2)*)cc1; Cbz = O=C(OCc1ccccc1)*

Legend:
Assay in all cases: inhibition of tumour cell growth, NCI panel, 48 h
[1] = tested on: M14
[2] = tested on: NCI-H522
[3] = tested on: SN12C
[4] = tested on: SNB-19
[5] = tested on: HOP-62
[6] = tested on: UO-31
[7] = tested on: RPMI-8226
[8] = tested on: NCI-H460
[9] = tested on: SK-OV-3
[10] = tested on: NCI-H226
[11] = tested on: IGROV-1
[12] = tested on: SNB-75
[13] = tested on: NCI/ADR-RES
[14] = tested on: OVCAR-5
[15] = tested on: A549
[16] = tested on: UACC-62
[17] = tested on: SF-539
[18] = tested on: HCT-15
[19] = tested on: CAKI-1
[20] = tested on: T47D

Compound | GI50 [1] | GI50 [2] | GI50 [3] | GI50 [4] | GI50 [5] | GI50 [6] | GI50 [7] | GI50 [8] | GI50 [9] | GI50 [10] | GI50 [11] | GI50 [12] | GI50 [13] | GI50 [14] | GI50 [15] | GI50 [16] | GI50 [17] | GI50 [18] | GI50 [19] | GI50 [20]
N=C(N)SCc1ccc(Cl)cc1Cl.O=[N+]([O-])c1c(O)c(Cl)cc(Cl)c1Cl | 11.4 µM (inactive) | 10.3 µM (inactive) | 11.9 µM (inactive) | 19.4 µM (inactive) | 14.5 µM (inactive) | 9.06 µM (inactive) | 1.81 µM (inactive) | 10.6 µM (inactive) | 17.3 µM (inactive) | 20.5 µM (inactive) | 17.8 µM (inactive) | 15.1 µM (inactive) | 19.5 µM (inactive) | 16.3 µM (inactive) | 22.3 µM (inactive) | 14.4 µM (inactive) | 12.9 µM (inactive) | 13.3 µM | 11 µM (inactive) | 9.82 µM (inactive)
CCc1c(Cl)c(C)cc(O)c1Cl | 34.7 µM (inactive) | 30.7 µM (inactive) | 16.7 µM (inactive) | 38.7 µM (inactive) | > 100 µM (inactive) | 23.7 µM (inactive) | 24.1 µM (inactive) | 32.7 µM (inactive) | > 100 µM (inactive) | 20.9 µM (inactive) | 51.1 µM (inactive) | 56.8 µM (inactive) | 45.2 µM (inactive) | > 100 µM (inactive) | 44.4 µM (inactive) | 32.6 µM (inactive) | 23 µM (inactive) | 17.8 µM | 74.1 µM (inactive) | 26.8 µM (inactive)
O=C(O)c1ccc(NNC(=O)c2cccc3c(=O)c4ccccc4[nH]c23)cc1 | > 100 µM (inactive) | 25.4 µM (inactive) | > 100 µM (inactive) | > 100 µM (inactive) | > 100 µM (inactive) | 89.7 µM (inactive) | > 100 µM (inactive) | 92.9 µM (inactive) | > 100 µM (inactive) | > 100 µM (inactive) | > 100 µM (inactive) | > 100 µM (inactive) | > 100 µM (inactive) | > 100 µM (inactive) | > 100 µM (inactive) | > 100 µM (inactive) | > 100 µM (inactive) | > 100 µM | > 100 µM (inactive) | 31.6 µM (inactive)
Cc1cc(C)nc(NC(=S)Nc2ccc(Cl)cc2)c1 | > 100 µM (inactive) | 1.37 µM (inactive) | > 100 µM (inactive) | > 100 µM (inactive) | 35.9 µM (inactive) | > 100 µM (inactive) | > 100 µM (inactive) | 66.7 µM (inactive) | 23.4 µM (inactive) | 27.8 µM (inactive) | 65.8 µM (inactive) | 11.9 µM (inactive) | 29.2 µM (inactive) | 29.2 µM (inactive) | > 100 µM (inactive) | > 100 µM (inactive) | 53.2 µM (inactive) | > 100 µM | 60.5 µM (inactive) | > 100 µM (inactive)
O=C1CC(=O)NC(NNS(=O)(=O)c2ccc(Cl)cc2)=N1 | > 100 µM (inactive) | > 100 µM (inactive) | > 100 µM (inactive) | > 100 µM (inactive) | > 100 µM (inactive) | > 100 µM (inactive) | > 100 µM (inactive) | > 100 µM (inactive) | 58.5 µM (inactive) | > 100 µM (inactive) | > 100 µM (inactive) | > 100 µM (inactive) | > 100 µM (inactive) | > 100 µM (inactive) | > 100 µM (inactive) | > 100 µM (inactive) | > 100 µM (inactive) | > 100 µM | > 100 µM (inactive) | > 100 µM (inactive)
CC1(O)CCC(C(C)(C)O)CC1 (stereo not given) [TERPIN] | > 100 µM (inactive) | > 100 µM (inactive) | > 100 µM (inactive) | > 100 µM (inactive) | > 100 µM (inactive) | > 100 µM (inactive) | > 100 µM (inactive) | > 100 µM (inactive) | > 100 µM (inactive) | > 100 µM (inactive) | 16.1 µM (inactive) | > 100 µM (inactive) | > 100 µM (inactive) | > 100 µM (inactive) | > 100 µM (inactive) | > 100 µM (inactive) | > 100 µM (inactive) | > 100 µM | > 100 µM (inactive) | > 100 µM (inactive)
CC1=NN(c2nc(N)nc(CCl)n2)CC1 | 25 µM (inactive) | 1.96 µM (inactive) | 32.4 µM (inactive) | > 100 µM (inactive) | 11.4 µM (inactive) | 7.76 µM (inactive) | 38.9 µM (inactive) | 20.9 µM (inactive) | 36.6 µM (inactive) | 30.5 µM (inactive) | 7.14 µM (inactive) | 18.6 µM (inactive) | 24.2 µM (inactive) | 20 µM (inactive) | 57.7 µM (inactive) | 15.2 µM (inactive) | 24.5 µM (inactive) | 17.3 µM | 9.12 µM (inactive) | 74.8 µM (inactive)
CN(C)CCCNC(=O)CCNC(=O)c1cc(NC(=O)c2cc(NC(=O)c3cc(NC(=O)c4nccn4C)cn3C)cn2C)cn1C | > 100 µM (inactive) | 5.47 µM (inactive) | > 100 µM (inactive) | 29.6 µM (inactive) | > 100 µM (inactive) | > 100 µM (inactive) | > 100 µM (inactive) | > 100 µM (inactive) | > 100 µM (inactive) | > 100 µM (inactive) | > 100 µM (inactive) | 54.7 µM (inactive) | > 100 µM (inactive) | > 100 µM (inactive) | > 100 µM (inactive) | > 100 µM (inactive) | 54.6 µM (inactive) | > 100 µM | > 100 µM (inactive) | 31 µM (inactive)
CC1C(=O)O[B-]2(c3ccccc3)Oc3ccccc3C=[N+]12 (stereo not given) | > 100 µM (inactive) | > 100 µM (inactive) | > 100 µM (inactive) | > 100 µM (inactive) | > 100 µM (inactive) | > 100 µM (inactive) | > 100 µM (inactive) | > 100 µM (inactive) | > 100 µM (inactive) | > 100 µM (inactive) | > 100 µM (inactive) | 72.1 µM (inactive) | > 100 µM (inactive) | > 100 µM (inactive) | > 100 µM (inactive) | > 100 µM (inactive) | > 100 µM (inactive) | > 100 µM | > 100 µM (inactive) | > 100 µM (inactive)
O=C1OC(=O)C2CCCC3CCCC1C32 (stereo not given) | > 100 µM (inactive) | > 100 µM (inactive) | > 100 µM (inactive) | > 100 µM (inactive) | > 100 µM (inactive) | > 100 µM (inactive) | > 100 µM (inactive) | > 100 µM (inactive) | > 100 µM (inactive) | > 100 µM (inactive) | > 100 µM (inactive) | > 100 µM (inactive) | > 100 µM (inactive) | > 100 µM (inactive) | > 100 µM (inactive) | > 100 µM (inactive) | > 100 µM (inactive) | > 100 µM | > 100 µM (inactive) | > 100 µM (inactive)
COC(=O)C(CO)NC(=O)C(CSC(c1ccccc1)(c1ccccc1)c1ccccc1)NC(=O)OCc1ccccc1 (stereo not given) (Cbz-Cys(Trt)-Ser-OMe; configuration not given here) | 19.4 µM (inactive) | 15.5 µM (inactive) | 13.3 µM (inactive) | 19.5 µM (inactive) | 17.3 µM (inactive) | 14.5 µM (inactive) | 0.36 µM (active) | 8.81 µM (inactive) | 24.6 µM (inactive) | 12.2 µM (inactive) | 16.8 µM (inactive) | 17.6 µM (inactive) | 16.8 µM (inactive) | 17.7 µM (inactive) | 13.4 µM (inactive) | 12.1 µM (inactive) | 12.1 µM (inactive) | 19.2 µM | 16.6 µM (inactive) | 20.7 µM (inactive)
C/C(=C\COc1ccc2ccc(=O)oc2c1)CCC(=O)C(C)(C)O | 22 µM (inactive) | 19.4 µM (inactive) | 24.2 µM (inactive) | 32.7 µM (inactive) | 44 µM (inactive) | 28.4 µM (inactive) | 17 µM (inactive) | 31.8 µM (inactive) | 36 µM (inactive) | 26.5 µM (inactive) | 35.1 µM (inactive) | 68.1 µM (inactive) | 27.9 µM (inactive) | 40.8 µM (inactive) | 26.7 µM (inactive) | 18.3 µM (inactive) | 21 µM (inactive) | 17.1 µM | 29.2 µM (inactive) | 29.9 µM (inactive)
C=C1c2nc3ccccc3n2C=C(c2ccc(OC)cc2)N1c1ccc(OCCN2CCCCC2)cc1 | 14.2 µM (inactive) | > 100 µM (inactive) | 27.1 µM (inactive) | 11.3 µM (inactive) | 35.6 µM (inactive) | 8.22 µM (inactive) | 2.9 µM (inactive) | 2.47 µM (inactive) | 49.1 µM (inactive) | 28.2 µM (inactive) | 12.4 µM (inactive) | 50.5 µM (inactive) | 4.73 µM (inactive) | > 74.1 µM (inactive) | 17.6 µM (inactive) | 20.7 µM (inactive) | 20.2 µM (inactive) | 4.74 µM | 13.4 µM (inactive) | 26.6 µM (inactive)
Nc1nc(N)c(C2=CCNCC2)c(=O)[nH]1 | > 100 µM (inactive) | > 100 µM (inactive) | > 100 µM (inactive) | > 100 µM (inactive) | > 100 µM (inactive) | > 100 µM (inactive) | > 100 µM (inactive) | > 100 µM (inactive) | > 100 µM (inactive) | > 100 µM (inactive) | > 100 µM (inactive) | > 100 µM (inactive) | > 100 µM (inactive) | > 100 µM (inactive) | > 100 µM (inactive) | > 100 µM (inactive) | > 100 µM (inactive) | > 100 µM | > 100 µM (inactive) | > 100 µM (inactive)
